For 32 compounds, IC50 results are on record in patent US20250026766A1, “Thiazolopyridyl Amide Derivatives as DNA Polymerase Theta Inhibitors” (BeiGene, Ltd., priority 2022, published 2025).

As a reminder, the IC50 is the concentration that gives 50% inhibition. Higher therefore signals lower potency.

In the experiment the target is Pol Theta (1-894) (Homo sapiens (Human), UniProt O75417). The experiment in a line: Biochemical Pol Theta (1-894) ATPase IC50 assay (ADP-Glo, ssDNA substrate). As to conditions: ADP-Glo assay with ssDNA substrate, room temperature. The essentials: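 His-tagged human Pol Theta 1-894 from Sf9 baculovirus cells, 2× enzyme solution at 12.5 nM, assayed with ssDNA substrate at room temperature in 40 mM Tris pH 7.5, 20 mM MgCl2, 1 mM DTT, 0.01% BSA, 0.05% Tween-20.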
Chain of Pol Theta (1-894) (O75417 1-894): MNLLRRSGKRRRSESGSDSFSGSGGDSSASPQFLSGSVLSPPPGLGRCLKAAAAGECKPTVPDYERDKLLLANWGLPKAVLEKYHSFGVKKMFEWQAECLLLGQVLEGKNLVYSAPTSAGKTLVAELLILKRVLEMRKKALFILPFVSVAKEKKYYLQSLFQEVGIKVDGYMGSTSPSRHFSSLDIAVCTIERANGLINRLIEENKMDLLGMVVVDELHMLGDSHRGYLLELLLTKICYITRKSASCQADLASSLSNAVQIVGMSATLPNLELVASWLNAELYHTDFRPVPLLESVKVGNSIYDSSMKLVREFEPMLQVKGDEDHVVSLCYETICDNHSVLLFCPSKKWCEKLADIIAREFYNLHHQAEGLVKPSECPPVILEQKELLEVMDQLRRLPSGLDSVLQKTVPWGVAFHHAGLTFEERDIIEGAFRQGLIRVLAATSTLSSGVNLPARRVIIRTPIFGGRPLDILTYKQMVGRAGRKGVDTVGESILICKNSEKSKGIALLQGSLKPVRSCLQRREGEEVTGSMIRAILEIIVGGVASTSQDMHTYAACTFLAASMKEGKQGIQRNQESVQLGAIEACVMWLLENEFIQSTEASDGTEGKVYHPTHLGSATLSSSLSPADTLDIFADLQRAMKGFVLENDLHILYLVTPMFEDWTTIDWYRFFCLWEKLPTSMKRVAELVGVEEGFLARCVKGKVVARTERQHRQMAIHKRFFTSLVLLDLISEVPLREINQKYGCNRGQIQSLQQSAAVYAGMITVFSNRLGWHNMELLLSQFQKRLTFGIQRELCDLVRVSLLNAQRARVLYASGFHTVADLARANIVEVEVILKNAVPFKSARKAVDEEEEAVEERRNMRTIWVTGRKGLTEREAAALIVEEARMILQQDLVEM
(In general: In ADP-Glo the light output rises with the ADP produced.)
In turn, `COc1ccccc1-c1cnncc1C(=O)Nc1nc2ccc(-c3ccc(C#N)cc3)nc2s1` [Example 83, N-(5-(4-cyanophenyl)thiazolo[5,4-b]pyridin-2-yl)-5-(2-methoxyphenyl)pyridazine-4-carboxamide] had an IC50 of 6.2 nM.
With `COc1ccc(C#N)cc1-c1cc(C)ncc1C(=O)Nc1nc2ccc(-c3ccc(C(=O)N4CCOCC4)cc3)nc2s1` [Example 84, 4-(5-cyano-2-methoxyphenyl)-6-methyl-N-(5-(4-(morpholine-4-carbonyl)phenyl)thiazolo[5,4-b]pyridin-2-yl)nicotinamide], half-maximal inhibition (IC50) required 49 nM.
On to `COc1ccc(C#N)cc1-c1cc(C)ncc1C(=O)Nc1nc2ccc(-c3ccc(C(=O)N4CCCC4)cc3)nc2s1` [Example 85, 4-(5-cyano-2-methoxyphenyl)-6-methyl-N-(5-(4-(pyrrolidine-1-carbonyl)phenyl)thiazolo[5,4-b]pyridin-2-yl)nicotinamide], for which the IC50 amounted to 62 nM.
Compound `COc1ccc(C#N)cc1-c1cc(C)ncc1C(=O)Nc1nc2ccc(-c3ccc(C(=O)N(C)C)cc3)nc2s1` [Example 86, 4-(5-cyano-2-methoxyphenyl)-N-(5-(4-(dimethylcarbamoyl)phenyl)thiazolo[5,4-b]pyridin-2-yl)-6-methylnicotinamide] registered an IC50 of 7.4 nM.
For `COc1cccc(C)c1-c1cc(C)ncc1C(=O)Nc1nc2ccc(-c3ccc(C#N)cc3)nc2s1` [Example 87, N-(5-(4-cyanophenyl)thiazolo[5,4-b]pyridin-2-yl)-4-(2-methoxy-6-methylphenyl)-6-methylnicotinamide], the IC50 was 371 nM.
To `COc1ccccc1-c1cnncc1C(=O)Nc1nc2ccc(-c3ccc(C(=O)N4CCCC4)cc3)nc2s1` [Example 88, 5-(2-methoxyphenyl)-N-(5-(4-(pyrrolidine-1-carbonyl)phenyl)thiazolo[5,4-b]pyridin-2-yl)pyridazine-4-carboxamide] belongs 50 nM.
`COc1ccc(C#N)cc1-c1cc(C)ncc1C(=O)Nc1nc2ccc(-c3ccc(N(C)S(C)(=O)=O)c(C)c3)nc2s1` [Example 89, 4-(5-cyano-2-methoxyphenyl)-6-methyl-N-(5-(3-methyl-4-(N-methylmethylsulfonamido)phenyl)thiazolo[5,4-b]pyridin-2-yl)nicotinamide] returned an IC50 of 23 nM.
The compound `COc1ccc(C#N)cc1-c1cc(C)ncc1C(=O)Nc1nc2ccc(-c3ccc(NS(C)(=O)=O)c(F)c3)nc2s1` [Example 90, 4-(5-cyano-2-methoxyphenyl)-N-(5-(3-fluoro-4-(methylsulfonamido)phenyl)thiazolo[5,4-b]pyridin-2-yl)-6-methylnicotinamide] gave an IC50 of 4.1 nM.
`COc1ccccc1-c1cnncc1C(=O)Nc1nc2ccc(-c3ccc(C(=O)N(C)C)cc3)nc2s1` [Example 92, N-(5-(4-(dimethylcarbamoyl)phenyl)thiazolo[5,4-b]pyridin-2-yl)-5-(2-methoxyphenyl)pyridazine-4-carboxamide] showed an IC50 of 16 nM.
For the compound `COc1ccccc1-c1cnncc1C(=O)Nc1nc2ccc(-c3ccc(N4CCCC4=O)cc3)nc2s1` [Example 93, 5-(2-methoxyphenyl)-N-(5-(4-(2-oxopyrrolidin-1-yl)phenyl)thiazolo[5,4-b]pyridin-2-yl)pyridazine-4-carboxamide], the IC50 turned out to be 20 nM.
As to `CCNC(=O)c1ccc2nc(NC(=O)c3cnncc3-c3ccccc3OC)sc2n1` [Example 94, N-ethyl-2-(5-(2-methoxyphenyl)pyridazine-4-carboxamido)thiazolo[5,4-b]pyridine-5-carboxamide], the IC50 is 29 nM.
Compound `CCOc1ccc2nc(NC(=O)c3cnncc3-c3ccccc3OC)sc2n1` [Example 95, N-(5-ethoxythiazolo[5,4-b]pyridin-2-yl)-5-(2-methoxyphenyl)pyridazine-4-carboxamide] yielded an IC50 of 72 nM.
The value for `COc1cc(Cl)ccc1-c1ccc2nc(NC(=O)c3cnncc3-c3ccccc3OC)sc2n1` [Example 96, N-(5-(4-chloro-2-methoxyphenyl)thiazolo[5,4-b]pyridin-2-yl)-5-(2-methoxyphenyl)pyridazine-4-carboxamide] was 60 nM; that for `COc1ccccc1-c1cnncc1C(=O)Nc1nc2ccc(-c3ccc(Cl)cc3C)nc2s1` [Example 97, N-(5-(4-chloro-2-methylphenyl)thiazolo[5,4-b]pyridin-2-yl)-5-(2-methoxyphenyl)pyridazine-4-carboxamide] was 27 nM.
Take `COc1ccccc1-c1cnncc1C(=O)Nc1nc2ccc(Oc3ccc(Cl)cc3)nc2s1` [Example 98, N-(5-(4-chlorophenoxy)thiazolo[5,4-b]pyridin-2-yl)-5-(2-methoxyphenyl)pyridazine-4-carboxamide]: the IC50 is 22 nM.
To `COc1ccccc1-c1cnncc1C(=O)Nc1nc2ccc(-c3ccc(Cl)cc3C(F)(F)F)nc2s1` [Example 99, N-(5-(4-chloro-2-(trifluoromethyl)phenyl)thiazolo[5,4-b]pyridin-2-yl)-5-(2-methoxyphenyl)pyridazine-4-carboxamide] belongs 66 nM.
The value for `COc1ccccc1-c1cnncc1C(=O)Nc1nc2ccc(-c3ccc(Cl)cc3F)nc2s1` [Example 100, N-(5-(4-chloro-2-fluorophenyl)thiazolo[5,4-b]pyridin-2-yl)-5-(2-methoxyphenyl)pyridazine-4-carboxamide] was 29 nM; that for `COc1ccccc1-c1cnncc1C(=O)Nc1nc2ccc(-c3c(C)cc(Cl)cc3C)nc2s1` [Example 101, N-(5-(4-chloro-2,6-dimethylphenyl)thiazolo[5,4-b]pyridin-2-yl)-5-(2-methoxyphenyl)pyridazine-4-carboxamide] was 35 nM; that for `COc1ccccc1-c1cnncc1C(=O)Nc1nc2ccc(-c3ccc(C(=O)NC(C)C)cc3)nc2s1` [Example 102, N-(5-(4-(isopropylcarbamoyl)phenyl)thiazolo[5,4-b]pyridin-2-yl)-5-(2-methoxyphenyl)pyridazine-4-carboxamide] was 63 nM.
`COc1ccccc1-c1cnncc1C(=O)Nc1nc2ccc(-c3ccc(C(=O)N4CCOCC4)cc3)nc2s1` [Example 103, 5-(2-methoxyphenyl)-N-(5-(4-(morpholine-4-carbonyl)phenyl)thiazolo[5,4-b]pyridin-2-yl)pyridazine-4-carboxamide] came in with an IC50 of 83 nM.
To `COc1cccc(F)c1-c1cc(C)ncc1C(=O)Nc1nc2ccc(-c3ccc(C#N)cc3)nc2s1` [Example 104, N-(5-(4-cyanophenyl)thiazolo[5,4-b]pyridin-2-yl)-4-(2-fluoro-6-methoxyphenyl)-6-methylnicotinamide] belongs 6.5 nM; to `CCOc1ccc(C#N)cc1-c1cc(C)ncc1C(=O)Nc1nc2ccc(-c3ccc(C#N)cc3)nc2s1` [Example 105, 4-(5-cyano-2-ethoxyphenyl)-N-(5-(4-cyanophenyl)thiazolo[5,4-b]pyridin-2-yl)-6-methylnicotinamide], 16 nM.
Regarding `Cc1cc(-c2cc(C#N)ccc2C)c(C(=O)Nc2nc3ccc(-c4ccc(C#N)cc4)nc3s2)cn1` [Example 106, 4-(5-cyano-2-methylphenyl)-N-(5-(4-cyanophenyl)thiazolo[5,4-b]pyridin-2-yl)-6-methylnicotinamide], the midpoint of inhibition, the IC50, lay at 26 nM.
`COc1ccc(C#N)cc1-c1cc(C)ncc1C(=O)Nc1nc2ccc(CCc3ccc(Cl)cc3)nc2s1` [Example 107, N-(5-(4-chlorophenethyl)thiazolo[5,4-b]pyridin-2-yl)-4-(5-cyano-2-methoxyphenyl)-6-methylnicotinamide] had an IC50 of 17 nM.
Turning to `CCNC(=O)c1ccc(-c2ccc3nc(NC(=O)c4cnncc4-c4ccccc4OC)sc3n2)cc1` [Example 108, N-(5-(4-(ethylcarbamoyl)phenyl)thiazolo[5,4-b]pyridin-2-yl)-5-(2-methoxyphenyl)pyridazine-4-carboxamide], it took 19 nM to reach half-maximal inhibition (IC50).
Take `COc1ccc(C#N)cc1-c1cc(CO)ncc1C(=O)Nc1nc2ccc(-c3ccc(C#N)cc3)nc2s1` [Example 109, 4-(5-cyano-2-methoxyphenyl)-N-(5-(4-cyanophenyl)thiazolo[5,4-b]pyridin-2-yl)-6-(hydroxymethyl)nicotinamide]: half-maximal inhibition (IC50) was put at 4.7 nM.
On to `COc1ccc(C#N)cc1-c1cc(C)ncc1C(=O)Nc1nc2ccc(-c3ccc(C(N)=O)c(C)c3)nc2s1` [Example 110, N-(5-(4-carbamoyl-3-methylphenyl)thiazolo[5,4-b]pyridin-2-yl)-4-(5-cyano-2-methoxyphenyl)-6-methylnicotinamide], for which 5.8 nM corresponded to half-maximal inhibition (IC50).
The compound `COc1ccccc1-c1cnncc1C(=O)Nc1nc2ccc(-c3ccc(NC(=O)CO)cc3)nc2s1` [Example 111, N-(5-(4-(2-hydroxyacetamido)phenyl)thiazolo[5,4-b]pyridin-2-yl)-5-(2-methoxyphenyl)pyridazine-4-carboxamide] registered an IC50 of 11 nM.
The value for `COc1ccccc1-c1cnncc1C(=O)Nc1nc2ccc(C(=O)NCCO)nc2s1` [Example 112, N-(2-hydroxyethyl)-2-(5-(2-methoxyphenyl)pyridazine-4-carboxamido)thiazolo[5,4-b]pyridine-5-carboxamide] was 60 nM; that for `COc1ccccc1-c1cnncc1C(=O)Nc1nc2ccc(C(=O)NC3CCOCC3)nc2s1` [Example 113, 2-(5-(2-methoxyphenyl)pyridazine-4-carboxamido)-N-(tetrahydro-2H-pyran-4-yl)thiazolo[5,4-b]pyridine-5-carboxamide] was 167 nM; that for `COc1ccccc1-c1cnncc1C(=O)Nc1nc2ccc(OC3CCCC3)nc2s1` [Example 114, N-(5-(cyclopentyloxy)thiazolo[5,4-b]pyridin-2-yl)-5-(2-methoxyphenyl)pyridazine-4-carboxamide] was 99 nM.
Regarding `COc1ccc(C#N)cc1-c1cc(C)ncc1C(=O)Nc1nc2ccc(-c3ccc(CNC(C)=O)cc3)nc2s1` [Example 115, N-(5-(4-(acetamidomethyl)phenyl)thiazolo[5,4-b]pyridin-2-yl)-4-(5-cyano-2-methoxyphenyl)-6-methylnicotinamide], the IC50 turned out to be 7.1 nM.
